Target: T1, human RORγ-LBD (Homo sapiens, UniProt P51449)
T1 construct: made in house; host or cells: E. coli (BL-21)
T1 sequence (P51449 262-518): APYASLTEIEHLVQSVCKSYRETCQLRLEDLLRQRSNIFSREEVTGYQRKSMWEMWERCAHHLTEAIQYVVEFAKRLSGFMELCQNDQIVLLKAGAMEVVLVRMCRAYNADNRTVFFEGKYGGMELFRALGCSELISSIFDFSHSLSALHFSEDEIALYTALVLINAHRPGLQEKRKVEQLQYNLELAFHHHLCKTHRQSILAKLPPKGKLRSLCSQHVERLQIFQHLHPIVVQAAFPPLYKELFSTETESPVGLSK
Assay: ROR gamma coactivator peptide recruitment Alphascreen assay (RORγ-LBD binding to GRIP1 coactivator peptide)
Format: biochemical
Conditions: 5 nM human RORγ-LBD, 30 nM 7-β-hydroxycholesterol, 50 nM biotinylated GRIP1 coactivator peptide, overnight incubation at room temperature; read-out: result (pIC50, RORγ coactivator peptide recruitment Alphascreen assay) (converted)
Procedure, shortened: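 His/Flag-tagged human RORγ-LBD (aa 262-518, E. coli-expressed, 5 nM) with agonist 7-β-hydroxycholesterol (30 nM) and biotinylated GRIP1 LXXLL peptide (50 nM) in HEPES pH 7.4 buffer, 2.5% DMSO. Compound 1-in-2 dilutions; Alphascreen bead signal read after overnight incubation at room temperature; pIC50 calculated.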

IC50 | Structure (SMILES)
468 nM | C[C@@H]1C[C@@H](n2ncc(C(=O)N(CCc3c(Cl)c[nH]c(=O)c3Cl)CC(C)(C)C)c2C(F)(F)F)CC[C@@H]1C(=O)O [Example 886, (1S,2R,4S)-4-(4-((2-(3,5-dichloro-2-oxo-1,2-dihydro-4-pyridinyl)ethyl)(2,2-dimethylpropyl)carbamoyl)-5-(trifluoromethyl)-1H-pyrazol-1-yl)-2-methylcyclohexane carboxylic acid]
16.2 nM | COc1ncc(Cl)c(CCN(CC(C)(C)C)C(=O)c2cnn([C@H]3CC[C@H](C(=O)O)[C@H](C)C3)c2C(F)(F)F)c1Cl [Example 887, (1S,2R,4S)-4-(4-((2-(3,5-dichloro-2-methoxy-4-pyridinyl)ethyl)(2,2-dimethylpropyl)carbamoyl)-5-(trifluoromethyl)-1H-pyrazol-1-yl)-2-methylcyclohexanecarboxylic acid]
3.24 nM | COc1cc(Cl)c(C(=O)CN(CC2(F)CCCC2)C(=O)c2cnn([C@H]3CC[C@H](CC(=O)O)CC3)c2C(F)(F)F)c(Cl)c1 [Example 888, (trans-4-(4-((2-(2,6-dichloro-4-methoxyphenyl)-2-oxoethyl)((1-fluorocyclopentyl)methyl)carbamoyl)-5-(trifluoromethyl)-1H-pyrazol-1-yl)cyclohexyl)acetic acid]
2.04 nM | COc1cc(Cl)c(C(=O)CN(Cc2ccc(F)cc2)C(=O)c2cnn([C@H]3CC[C@H](CC(=O)O)CC3)c2C(F)(F)F)c(Cl)c1 [Example 889, (trans-4-(4-((2-(2,6-dichloro-4-methoxyphenyl)-2-oxoethyl)(4-fluorobenzyl)carbamoyl)-5-(trifluoromethyl)-1H-pyrazol-1-yl)cyclohexyl)acetic acid]
0.708 nM | Cc1cc(Cl)c(C(=O)CN(CC2(C)CCC2)C(=O)c2cnn([C@H]3CC[C@H](CC(=O)O)CC3)c2C(F)(F)F)c(Cl)c1 [Example 890, (trans-4-(4-((2-(2,6-dichloro-4-methylphenyl)-2-oxoethyl)((1-methylcyclobutyl)methyl)carbamoyl)-5-(trifluoromethyl)-1H-pyrazol-1-yl)cyclohexyl)acetic acid]
15.5 nM | COc1cc(Cl)c(C(=O)CN(CC2CCC3(CCC3)CC2)C(=O)c2cnn([C@H]3CC[C@@](C)(C(=O)O)CC3)c2C(F)(F)F)c(Cl)c1 [Example 891, trans-4-(4-((2-(2,6-dichloro-4-methoxyphenyl)-2-oxoethyl)(spiro[3.5]non-7-ylmethyl)carbamoyl)-5-(trifluoromethyl)-1 H-pyrazol-1-yl)-1 - methylcyclohexanecarboxylic acid]
302 nM | CC(C)(C)CN(CCc1c(Cl)cn2ncnc2c1Cl)C(=O)c1cnn([C@H]2CC[C@](C)(C(=O)O)CC2)c1C(F)(F)F [Example 892, trans-4-(4-((2-(6,8-dichloro[1,2,4]triazolo[1,5-a]pyridin-7-yl)ethyl)(2,2-dimethylpropyl)carbamoyl)-5-(trifluoromethyl)-1H-pyrazol-1-yl)-1-methylcyclohexanecarboxylic acid]
2.24 nM | CC(C)(CN(CC(=O)c1c(Cl)cccc1Cl)C(=O)c1cnn([C@H]2CC[C@](C)(C(=O)O)CC2)c1C(F)(F)F)C(F)(F)F [Example 893, trans-4-(4-((2-(2,6-dichlorophenyl)-2-oxoethyl)(3,3,3-trifluoro-2,2-dimethylpropyl)carbamoyl)-5-(trifluoromethyl)-1H-pyrazol-1-yl)-1-methylcyclohexanecarboxylic acid]

— patent publication US9365522B2, “Pyrazole amide derivative” (AMGEN INC., priority 2015, dated 2016)
